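Grown in 96-well plates, cells were treated for 48 hours with each compound at five concentrations. Insufficient inhibition: endpoint recorded as highest concentration tested. The concentration for 50% growth inhibition is given as GI50.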 Calls of active or inactive are those of the source. Cut-off read from the data, not from the text of the source: active = GI50 up to about 1.1 µM and inactive = higher.
What was measured:
Test in all cases: NCI tumour cell line growth inhibition, 48 h
OVCAR-8 = test system: OVCAR-8
SN12C = test system: SN12C
BT-549 = test system: BT-549
TK-10 = test system: TK-10
NCI-H460 = test system: NCI-H460
A549 = test system: A549
SK-OV-3 = test system: SK-OV-3
PC-3 = test system: PC-3
RPMI-8226 = test system: RPMI-8226
SR = test system: SR
ACHN = test system: ACHN
NCI-H226 = test system: NCI-H226
OVCAR-5 = test system: OVCAR-5
U-251 = test system: U-251
NCI-H23 = test system: NCI-H23
SK-MEL-5 = test system: SK-MEL-5
SF-268 = test system: SF-268
Malme-3M = test system: Malme-3M
MOLT-4 = test system: MOLT-4

Row | SMILES | GI50 (OVCAR-8) | GI50 (SN12C) | GI50 (BT-549) | GI50 (TK-10) | GI50 (NCI-H460) | GI50 (A549) | GI50 (SK-OV-3) | GI50 (PC-3) | GI50 (RPMI-8226) | GI50 (SR) | GI50 (ACHN) | GI50 (NCI-H226) | GI50 (OVCAR-5) | GI50 (U-251) | GI50 (NCI-H23) | GI50 (SK-MEL-5) | GI50 (SF-268) | GI50 (Malme-3M) | GI50 (MOLT-4)
1 | O=S(=O)(c1ccccc1)N1CN2CN(C1)CN(S(=O)(=O)c1ccccc1)C2 | > 100 µM (inactive) | > 100 µM (inactive) | > 100 µM (inactive) | > 100 µM (inactive) | > 100 µM (inactive) | > 100 µM (inactive) | > 100 µM (inactive) | > 100 µM (inactive) | > 100 µM (inactive) | > 100 µM (inactive) | 79.8 µM (inactive) | > 100 µM (inactive) | > 100 µM (inactive) | 97.3 µM (inactive) | > 100 µM (inactive) | > 100 µM (inactive) |  |  | 
2 | CC/C(=C/OC)P1(=O)OC(C)(C)CN1C(C)(C)C (stereo not drawn) | > 100 µM (inactive) |  | > 100 µM (inactive) | > 100 µM (inactive) | > 100 µM (inactive) | > 100 µM (inactive) | > 100 µM (inactive) | > 100 µM (inactive) | > 100 µM (inactive) | > 100 µM (inactive) | > 100 µM (inactive) | > 100 µM (inactive) | > 100 µM (inactive) | > 100 µM (inactive) | > 100 µM (inactive) | > 100 µM (inactive) | > 100 µM (inactive) | > 100 µM (inactive) | 
3 | C/C=C/C=N/N(c1nnc(-c2ccccc2)c(-c2ccccc2)n1)S(=O)(=O)c1ccc(C)cc1 | 5.53 µM (inactive) | 8.13 µM (inactive) |  | 14.9 µM (inactive) | 11.1 µM (inactive) | 12 µM (inactive) | 18.7 µM (inactive) |  | 4.19 µM (inactive) | 3.48 µM (inactive) | 11.8 µM (inactive) | 15.3 µM (inactive) | 19.3 µM (inactive) | 4.04 µM (inactive) | 14 µM (inactive) | 8.22 µM (inactive) | 5.46 µM (inactive) | 10.4 µM (inactive) | 3.18 µM (inactive)
4 | C(/C=C/N1CCCC1)=C\c1nc(N2CCCC2)c2ccccc2n1 | 34.1 µM (inactive) | 13.5 µM (inactive) |  | 41 µM (inactive) | 18.2 µM (inactive) | 48.5 µM (inactive) | 18.6 µM (inactive) |  | 17.4 µM (inactive) | 13.6 µM (inactive) | 16.9 µM (inactive) | 16.7 µM (inactive) | 15.6 µM (inactive) |  | 18.2 µM (inactive) | 19.1 µM (inactive) | 23.9 µM (inactive) | 18.3 µM (inactive) | 17.3 µM (inactive)
5 | CC1(O)Oc2ccc3ccccc3c2C=C1C(N)=O (stereo not drawn) |  |  |  | > 100 µM (inactive) | 61.1 µM (inactive) |  | > 100 µM (inactive) | 64.9 µM (inactive) | 33.3 µM (inactive) | 46.5 µM (inactive) | > 100 µM (inactive) |  |  | > 100 µM (inactive) | > 100 µM (inactive) | 58.6 µM (inactive) | 71.9 µM (inactive) |  | 18.6 µM (inactive)
6 | CSC(=S)NN=C1CCCC1.CSC(=S)NN=C1CCCC1.[Zn+2] | 14.4 µM (inactive) | 17.9 µM (inactive) | 24 µM (inactive) | 19.8 µM (inactive) | 31.6 µM (inactive) | 18.8 µM (inactive) | > 100 µM (inactive) | 25.8 µM (inactive) | 11.5 µM (inactive) |  | 1.83 µM (inactive) | 43.9 µM (inactive) | 31.3 µM (inactive) | 8.93 µM (inactive) | > 100 µM (inactive) | 57.1 µM (inactive) | 34.1 µM (inactive) | 12.5 µM (inactive) | 9.66 µM (inactive)
7 | O=C(/C=C/c1c(O)nc2ccccc2c1O)CC(=O)C(=O)Nc1cccc(O)c1 | > 100 µM (inactive) | > 100 µM (inactive) | > 100 µM (inactive) | > 100 µM (inactive) | > 100 µM (inactive) | > 100 µM (inactive) | > 100 µM (inactive) | > 100 µM (inactive) | > 100 µM (inactive) |  | > 100 µM (inactive) | > 100 µM (inactive) | > 100 µM (inactive) | > 100 µM (inactive) | > 100 µM (inactive) | > 100 µM (inactive) | > 100 µM (inactive) | > 100 µM (inactive) | > 100 µM (inactive)
8 | COc1ccc(OC)c2c1C=C[C@H](C1(C)SCCS1)C2C(C)=O (stereo partly drawn) | 44.2 µM (inactive) | 35.3 µM (inactive) |  | 40.2 µM (inactive) | 27.9 µM (inactive) | 34.1 µM (inactive) | 20.4 µM (inactive) | 26.7 µM (inactive) | 18.6 µM (inactive) | 19.6 µM (inactive) | 35.2 µM (inactive) | 24 µM (inactive) | 21.3 µM (inactive) | 26.1 µM (inactive) | 22.6 µM (inactive) | 17.2 µM (inactive) | 29.6 µM (inactive) | 20.7 µM (inactive) | 19.7 µM (inactive)
9 | CC(=O)Oc1c(Br)ccc2cc(C(Br)Br)c(C(=O)c3ccccc3)nc12 | 23.6 µM (inactive) | 20 µM (inactive) |  | 17.7 µM (inactive) | 19.9 µM (inactive) | 24.3 µM (inactive) |  |  | > 10 µM (inactive) | 28.1 µM (inactive) | 22.1 µM (inactive) | 19.7 µM (inactive) | 17.3 µM (inactive) | 19.2 µM (inactive) | 20 µM (inactive) | 19.1 µM (inactive) | 25.7 µM (inactive) | 24.9 µM (inactive) | 20.7 µM (inactive)
10 | Nc1ncc(Cc2nc3ccccc3s2)s1 | 57.3 µM (inactive) | > 100 µM (inactive) |  | 85.5 µM (inactive) | 73.6 µM (inactive) | 69.8 µM (inactive) | > 100 µM (inactive) | 63.5 µM (inactive) | 18.5 µM (inactive) |  | 54.5 µM (inactive) | 24.6 µM (inactive) | > 100 µM (inactive) | 90.4 µM (inactive) | > 10 µM (inactive) | 28.6 µM (inactive) | > 100 µM (inactive) | 68.9 µM (inactive) | > 100 µM (inactive)
11 | COc1ccc(C2=C3SC=c4ccccc4=C3ON=C2c2ccccc2)cc1 | > 100 µM (inactive) | > 100 µM (inactive) | > 100 µM (inactive) | > 100 µM (inactive) | > 100 µM (inactive) | > 100 µM (inactive) |  | > 100 µM (inactive) | 69.2 µM (inactive) | 42 µM (inactive) | > 100 µM (inactive) | > 100 µM (inactive) | > 100 µM (inactive) | > 100 µM (inactive) | > 100 µM (inactive) | > 100 µM (inactive) | > 100 µM (inactive) | > 100 µM (inactive) | 37.2 µM (inactive)
12 | CCCCC1CC(c2cccc([N+](=O)[O-])c2)=NO1 (stereo not drawn) | 70.3 µM (inactive) | > 100 µM (inactive) |  | > 100 µM (inactive) | 75.5 µM (inactive) | 30.5 µM (inactive) | > 100 µM (inactive) |  | 74.3 µM (inactive) | > 100 µM (inactive) | > 100 µM (inactive) | > 100 µM (inactive) | > 100 µM (inactive) | 83.2 µM (inactive) | 80.9 µM (inactive) | 43.1 µM (inactive) | > 100 µM (inactive) | > 100 µM (inactive) | 36.4 µM (inactive)
13 | CCOC(=O)c1c(C(F)(F)F)oc2c1ccc1nc3nonc3nc12 | 16.3 µM (inactive) | 17.4 µM (inactive) |  | 19.4 µM (inactive) | 23.3 µM (inactive) | 18 µM (inactive) | 20.1 µM (inactive) |  | 6.07 µM (inactive) | 3.58 µM (inactive) | 15.3 µM (inactive) | 19.9 µM (inactive) | 17.2 µM (inactive) | 15.7 µM (inactive) | 13.4 µM (inactive) | 13.4 µM (inactive) | 17.9 µM (inactive) | 17 µM (inactive) | 2.54 µM (inactive)
14 | C[N+](C)(C)CC(=O)N/N=C(\Cc1nc2ccc([N+](=O)[O-])cc2nc1O)C(=O)Nc1nc2ccc([N+](=O)[O-])cc2s1 | 74.3 µM (inactive) | 89.1 µM (inactive) | 29.3 µM (inactive) | 67.6 µM (inactive) | 23.4 µM (inactive) | 36.3 µM (inactive) | 34 µM (inactive) | 27.1 µM (inactive) | 34.5 µM (inactive) | 44.1 µM (inactive) | 52.2 µM (inactive) | 25.4 µM (inactive) | > 100 µM (inactive) | 56.6 µM (inactive) | 30.7 µM (inactive) | 37.3 µM (inactive) | 34 µM (inactive) |  | 49.2 µM (inactive)
15 | C1OCC2S[C@@H]3COCO[C@@H]3C2O1 (stereo partly drawn) | > 100 µM (inactive) | > 100 µM (inactive) |  | > 100 µM (inactive) | > 100 µM (inactive) | > 100 µM (inactive) | > 100 µM (inactive) |  | > 100 µM (inactive) | > 100 µM (inactive) | > 100 µM (inactive) | > 100 µM (inactive) | > 100 µM (inactive) | > 100 µM (inactive) | > 100 µM (inactive) | > 100 µM (inactive) | > 100 µM (inactive) | > 100 µM (inactive) | > 100 µM (inactive)
16 | CC(C)=CCCc1c(C)ccc2c1C(=O)C(=O)C(C(C)C)=C2 | 3.85 µM (inactive) | 9.06 µM (inactive) |  | 4.41 µM (inactive) | 10.7 µM (inactive) | > 22 µM (inactive) | > 22 µM (inactive) |  | 0.839 µM (active) | 3.5 µM (inactive) | 3.8 µM (inactive) | > 22 µM (inactive) |  | > 22 µM (inactive) | 3.94 µM (inactive) | 20 µM (inactive) | 5.71 µM (inactive) | 3.73 µM (inactive) | 1.36 µM (inactive)

— ChEMBL document CHEMBL1201862, “PubChem BioAssay data set” (2004)
